From ChEMBL document CHEMBL4004891, “Antioxidant Properties of Novel Dimers Derived from Natural β-Elemene through Inhibiting H2O2-Induced Apoptosis” (ACS Med Chem Lett, 2017)
Active and inactive are the calls of the source. The rule behind the calls is not given here.

The compounds below were run on HUVEC (assay: Cytoprotective activity against H2O2-induced cell injury in HUVEC assessed as increase in cell viability at 100 uM pretreated for 24 hrs followed by H2O2-stimulation after 2 hrs by MTT assay). Settings: Homo sapiens.
Type: functional, cell-based
In the case of VITAMIN E, the Activity is reported as “Active”.

Each compound was assayed on HUVEC (assay: Cytoprotective activity against H2O2-induced cell injury in HUVEC assessed as increase in cell viability at 10 uM pretreated for 24 hrs followed by H2O2-stimulation after 2 hrs by MTT assay). Settings: Homo sapiens.
Type: functional, cell-based
`C=C[C@]1(C)CC[C@@H](C(=C)COC(=O)CCC(=O)OCC(=C)[C@@H]2CC[C@@](C)(C=C)[C@H](C(=C)C)C2)C[C@H]1C(=C)C` was tested, and the Activity was “Active”.
`C=C[C@]1(C)CC[C@@H](C(=C)COCc2cn(CCCCCC(=O)OCC(=C)[C@@H]3CC[C@@](C)(C=C)[C@H](C(=C)C)C3)nn2)C[C@H]1C(=C)C` was tested, and the Activity was “Active”.
In the case of `C=C[C@]1(C)CC[C@@H](C(=C)COC(=O)CCCN(C)CCN(C)CCCC(=O)OCC(=C)[C@@H]2CC[C@@](C)(C=C)[C@H](C(=C)C)C2)C[C@H]1C(=C)C`, the Activity is reported as “Active”.
For `C=C[C@]1(C)CC[C@@H](C(=C)COC(=O)c2cn(CCCCCCn3cc(C(=O)OCC(=C)[C@@H]4CC[C@@](C)(C=C)[C@H](C(=C)C)C4)nn3)nn2)C[C@H]1C(=C)C`, the Activity was “Active”.
With `C=C[C@]1(C)CC[C@@H](C(=C)COC(=O)[C@@H]2[C@H](C(=O)OCC(=C)[C@@H]3CC[C@@](C)(C=C)[C@H](C(=C)C)C3)[C@@H]3C=C[C@H]2C3)C[C@H]1C(=C)C` the Activity was “Active”.
In the case of `C=C[C@]1(C)CC[C@@H](C(=C)COC(=O)CCN(C)CCN(C)CCC(=O)OCC(=C)[C@@H]2CC[C@@](C)(C=C)[C@H](C(=C)C)C2)C[C@H]1C(=C)C`, the Activity is reported as “Active”.
In the case of `C=C[C@]1(C)CC[C@@H](C(=C)COC(=O)CCC(=O)N2CCN(C(=O)CCC(=O)OCC(=C)[C@@H]3CC[C@@](C)(C=C)[C@H](C(=C)C)C3)CC2)C[C@H]1C(=C)C`, the Activity is reported as “Active”.
In the case of `C=C[C@]1(C)CC[C@@H](C(=C)COCc2cn(CCCC(=O)OCC(=C)[C@@H]3CC[C@@](C)(C=C)[C@H](C(=C)C)C3)nn2)C[C@H]1C(=C)C`, the Activity is reported as “Active”.
For `C=C[C@]1(C)CC[C@@H](C(=C)COC(=O)CC(=O)OCC(=C)[C@@H]2CC[C@@](C)(C=C)[C@H](C(=C)C)C2)C[C@H]1C(=C)C`, the Activity was “Active”.
For `C=C[C@]1(C)CC[C@@H](C(=C)COC(=O)CCCn2cc(C(=O)OCC(=C)[C@@H]3CC[C@@](C)(C=C)[C@H](C(=C)C)C3)nn2)C[C@H]1C(=C)C`, the Activity was “Active”.
With `C=C[C@]1(C)CC[C@@H](C(=C)COC(=O)C(=O)OCC(=C)[C@@H]2CC[C@@](C)(C=C)[C@H](C(=C)C)C2)C[C@H]1C(=C)C` the Activity was “Active”.
In the case of `C=C[C@]1(C)CC[C@@H](C(=C)COC(=O)CCCC(=O)OCC(=C)[C@@H]2CC[C@@](C)(C=C)[C@H](C(=C)C)C2)C[C@H]1C(=C)C`, the Activity is reported as “Active”.
For `C=C[C@]1(C)CC[C@@H](C(=C)COC(=O)CCCCn2cc(C(=O)OCC(=C)[C@@H]3CC[C@@](C)(C=C)[C@H](C(=C)C)C3)nn2)C[C@H]1C(=C)C`, the Activity was “Active”.
In the case of `C=C[C@]1(C)CC[C@@H](C(=C)COC(=O)C[C@H](N)C(=O)OCC(=C)[C@@H]2CC[C@@](C)(C=C)[C@H](C(=C)C)C2)C[C@H]1C(=C)C`, the Activity is reported as “Active”.
For `C=C[C@]1(C)CC[C@@H](C(=C)COCc2cn(CCCCC(=O)OCC(=C)[C@@H]3CC[C@@](C)(C=C)[C@H](C(=C)C)C3)nn2)C[C@H]1C(=C)C`, the Activity was “Active”.
In the case of `C=C[C@]1(C)CC[C@@H](C(=C)CN2CCN(CC(=C)[C@@H]3CC[C@@](C)(C=C)[C@H](C(=C)C)C3)CC2)C[C@H]1C(=C)C`, the Activity is reported as “Active”.
With `C=C[C@]1(C)CC[C@@H](C(=C)CN(C)CCN(C)CC(=C)[C@@H]2CC[C@@](C)(C=C)[C@H](C(=C)C)C2)C[C@H]1C(=C)C` the Activity was “Active”.
`C=C[C@]1(C)CC[C@@H](C(=C)COC(=O)CC[C@H](N)C(=O)OCC(=C)[C@@H]2CC[C@@](C)(C=C)[C@H](C(=C)C)C2)C[C@H]1C(=C)C` was tested, and the Activity was “Active”.
`C=C[C@]1(C)CC[C@@H](C(=C)COC(=O)c2cccc3cccc(C(=O)OCC(=C)[C@@H]4CC[C@@](C)(C=C)[C@H](C(=C)C)C4)c23)C[C@H]1C(=C)C` was tested, and the Activity was “Active”.
In the case of `C=C[C@]1(C)CC[C@@H](C(=C)COC(=O)c2cccc(C(=O)OCC(=C)[C@@H]3CC[C@@](C)(C=C)[C@H](C(=C)C)C3)c2)C[C@H]1C(=C)C`, the Activity is reported as “Active”.
For `C=C[C@]1(C)CC[C@@H](C(=C)COC(=O)c2ccc(C(=O)OCC(=C)[C@@H]3CC[C@@](C)(C=C)[C@H](C(=C)C)C3)cc2)C[C@H]1C(=C)C`, the Activity was “Active”.
For `C=C[C@]1(C)CC[C@@H](C(=C)COCc2cn(CCCCCCn3cc(COCC(=C)[C@@H]4CC[C@@](C)(C=C)[C@H](C(=C)C)C4)nn3)nn2)C[C@H]1C(=C)C`, the Activity was “Active”.
In the case of `C=C[C@]1(C)CC[C@@H](C(=C)COC(=O)CCCCCn2cc(C(=O)OCC(=C)[C@@H]3CC[C@@](C)(C=C)[C@H](C(=C)C)C3)nn2)C[C@H]1C(=C)C`, the Activity is reported as “Active”.
`C=C[C@]1(C)CC[C@@H](C(=C)COC(=O)c2cn(CCCCn3cc(C(=O)OCC(=C)[C@@H]4CC[C@@](C)(C=C)[C@H](C(=C)C)C4)nn3)nn2)C[C@H]1C(=C)C` was tested, and the Activity was “Active”.
In the case of `C=C[C@]1(C)CC[C@@H](C(=C)COCc2cn(CCCCn3cc(COCC(=C)[C@@H]4CC[C@@](C)(C=C)[C@H](C(=C)C)C4)nn3)nn2)C[C@H]1C(=C)C`, the Activity is reported as “Active”.
`C=C[C@]1(C)CC[C@@H](C(=C)COC(=O)CCN2CCN(CCC(=O)OCC(=C)[C@@H]3CC[C@@](C)(C=C)[C@H](C(=C)C)C3)CC2)C[C@H]1C(=C)C` was tested, and the Activity was “Active”.
With `C=C[C@]1(C)CC[C@@H](C(=C)COC(=O)COCC(=O)OCC(=C)[C@@H]2CC[C@@](C)(C=C)[C@H](C(=C)C)C2)C[C@H]1C(=C)C` the Activity was “Active”.
For `C=C[C@]1(C)CC[C@@H](C(=C)COCCCCOCC(=C)[C@@H]2CC[C@@](C)(C=C)[C@H](C(=C)C)C2)C[C@H]1C(=C)C`, the Activity was “Active”.
With `C=C[C@]1(C)CC[C@@H](C(=C)COC(=O)CCCN2CCN(CCCC(=O)OCC(=C)[C@@H]3CC[C@@](C)(C=C)[C@H](C(=C)C)C3)CC2)C[C@H]1C(=C)C` the Activity was “Active”.
